This note sets out measurements from patent US20040235784A1, “Combination preparations of 3-n-formylhydroxylaminopropyl phosphonic acid derivatives or 3-n-acetylhydroxylaminopropyl phosphonic acid derivatives combined with specific pharmaceutical active agents” (priority 2000, published 2004).

This experiment relates to Plasmodium falciparum strains Dd2, 3D7 and HB3. The experiment is described as follows: Sensitivity of Plasmodium falciparum to fosmidomycin in combination with different compounds, semi-automatic test by [3H]-hypoxanthin incorporation into parasite DNA. The format is cell-based. Conditions: drug in combination with fosmidomycin, sum FIC <1 synergism, >1 antagonism, =1 addition. How it is done: The IC50-values of fosmidomycin and the respective combination partner were determined for the single compounds and in different ratios of mixture on microtitreplates. The results were defined as sum of fractional inhibitory concentration (sum fractional inhibitory concentration, FIC):
sum FIC=IC50 of fosmidomycin in mixture/IC50 of fosmidomycin alone+IC50 of the combination partners in mixture/IC50 of combination partner alone
Sum FIC-values <1 represent synergism, values >1 antargonism and values=1 addition.

For the compound `CC[C@H]1OC(=O)[C@H](C)[C@@H](O[C@H]2C[C@@](C)(OC)[C@@H](O)[C@H](C)O2)[C@H](C)[C@@H](O[C@@H]2O[C@H](C)C[C@H](N(C)C)[C@H]2O)[C@](C)(O)C[C@@H](C)CN(C)[C@H](C)[C@@H](O)[C@]1(C)O` [azithromycin], the “sum FIC” value is 0.74 (P. falciparum strain 3D7), 0.86 (P. falciparum strain Dd2) and 0.85 (P. falciparum strain HB3).
As for `CCCCN(CCCC)CC(O)c1cc(Cl)cc2c1-c1ccc(Cl)cc1/C2=C/c1ccc(Cl)cc1` (stereo not drawn) [lumefantrin], the “sum FIC” value runs as follows: (P. falciparum strain 3D7) 1.21; (P. falciparum strain Dd2) 1.20; (P. falciparum strain HB3) 1.08.
